Measured values: US20250042853A1, “BICYCLIC COMPOUND AND APPLICATION THEREOF” (BETTA PHARMACEUTICALS CO., LTD, priority 2021, published 2025)

System: VEGFA
Experiment: VEGFA ELISA assay (IC50)
Type: cell-based
Details: 786-O cells, 24 h, VEGFA in culture supernatant by ELISA; class symbols
Procedure: 786-O cells in the logarithmic growth phase were inoculated into a 96-well plate at a cell concentration of 65,000 cells per ml of culture liquid, 180 μL per well. The compounds were diluted to the corresponding concentrations, and 20 μL of compound solutions of various concentrations were added to the corresponding cell wells, so that the final concentrations of the compounds were 1.5 nM, 4.6 nM, 13.7 nM, 41.2 nM, 123.5 nM, 370.4 nM, 1111.1 nM, 3333.3 nM, and 10000 nM, respectively. After culturing for 24 h, the cell culture supernatant was collected and the VEGFA concentration was determined using an ELISA kit (purchased from Abeam). Finally, the reaction was terminated and the absorbance value of each well was measured at a wavelength of 450 nm using an ELISA reader. The IC50 values were calculated by GraphPadPrism. CellTiter-Glo reagent was used to measure cell viability.

How did the IC50 turn out when `CS(=O)(=NC#N)c1cn(-c2ccc(F)c(C#N)c2)c2c1[C@H](O)C(F)(F)CC2` (stereo partly drawn) [Example 18, N—(((S)-1-(3-cyano-4-fluorophenyl)-5,5-difluoro-4-hydroxyl-4,5,6,7-tetrahydro-1H-indol-3-yl)(methyl)(oxo)-16-sulfino)cyanamide] was run?
The IC50 was ≤ 500 nM.

Same assay, conditions: Homo sapiens, 786-0; 786-O cells, 24 h, VEGFA in culture supernatant by ELISA

With `OC1c2c(C(F)(F)F)cn(-c3ccc(F)c(CF)c3)c2CCC1(F)F` (stereo not drawn) [Example 2, 5,5-difluoro-1-(4-fluoro-3-(fluoromethyl)phenyl)-3-(trifluoromethyl)-4,5,6,7-tetrahydro-1H-indol-4-ol] as the compound, how does the IC50 read?
The IC50 was 8.3 nM.

Which IC50 does the source give for `N#Cc1ccc(-n2cc(C(F)(F)F)c3c2CCC(F)(F)[C@H]3O)cc1C(F)F` [Example 3, (S)-4-(5,5-difluoro-4-hydroxyl-3-(trifluoromethyl)-4,5,6,7-tetrahydro-1H-indol-1-yl)-2-(difluoromethyl)benzonitrile] here?
Its IC50 is 3 nM.

`N#Cc1cc(-n2cc(S(=O)(=O)C(F)F)c3c2CCC(F)(F)[C@H]3O)ccc1F` [Example 4, (S)-5-(3-((difluoromethyl)sulfonyl)-5,5-difluoro-4-hydroxyl-4,5,6,7-tetrahydro-1H-indol-1-yl)-2-fluorobenzonitrile] was tested. Which IC50 did it give?
The IC50 was 98 nM.

With `CS(=O)(=O)c1cn(-c2ccc(F)c(C(F)F)c2)c2c1[C@H](O)C(F)(F)CC2` [Example 5, (S)-1-(3-(difluoromethyl)-4-fluorophenyl)-5,5-difluoro-3-(methylsulfonyl)-4,5,6,7-tetrahydro-1H-indol-4-ol] as the compound, how does the IC50 read?
Its IC50 is 72 nM.

Which IC50 does the source give for `N#Cc1cc(-n2cc(C(F)(F)C(F)(F)F)c3c2CCC(F)(F)C3O)ccc1F` (stereo not drawn) [Example 9, 5-(5,5-difluoro-4-hydroxyl-3-(perfluoroethyl)-4,5,6,7-tetrahydro-1H-indol-1-yl)-2-fluorobenzonitrile] here?
Its IC50 is 47 nM.

For `CCS(=O)(=O)c1cn(-c2ccc(F)c(C(F)(F)F)c2)c2c1[C@H](O)C(F)(F)CC2` [Example 16, (S)-3-(ethylsulfonyl)-5,5-difluoro-1-(4-fluoro-3-(trifluoromethyl)phenyl)-4,5,6,7-tetrahydro-1H-indol-4-ol], which IC50 is on record?
Its IC50 is 537 nM.

How did the IC50 turn out when `CS(=O)(=O)c1cn(-c2ccc(F)c(C(F)(F)F)c2)c2c1[C@H](O)C(F)(F)CC2` [Example 20, (S)-5,5-difluoro-1-(4-fluoro-3-(trifluoromethyl)phenyl)-3-(methylsulfonyl)-4,5,6,7-tetrahydro-1H-indol-4-ol] was run?
Its IC50 is 39 nM.

With `O=S(=O)(c1cn(-c2ccc(F)c(C(F)(F)F)c2)c2c1[C@H](O)C(F)(F)CC2)C(F)F` [Example 21, (S)-3-((difluoromethyl)sulfonyl)-5,5-difluoro-1-(4-fluoro-3-(trifluoromethyl)phenyl)-4,5,6,7-tetrahydro-1H-indol-4-ol] as the compound, how does the IC50 read?
The IC50 was 12 nM.

With `N#Cc1cc(-n2c(F)c(S(=O)(=O)C(F)F)c3c2CCC(F)(F)[C@H]3O)ccc1F` [Example 22, (S)-5-(3-((difluoromethyl)sulfonyl)-2,5,5-trifluoroether-4-hydroxyl-4,5,6,7-tetrahydro-1H-indol-1-yl)-2-fluorobenzonitrile] as the compound, how does the IC50 read?
The IC50 was 86 nM.

How did the IC50 turn out when `CS(=O)(=O)c1cn(-c2ccc(F)c(Cl)c2)c2c1C(O)C(F)(F)CC2` (stereo not drawn) [Example 24, 1-(3-chloro-4-fluorophenyl)-5,5-difluoro-3-(methylsulfonyl)-4,5,6,7-tetrahydro-1H-indol-4-ol] was run?
The IC50 was 72 nM.

`O=S(=O)(c1cn(-c2ccc(F)c(Cl)c2)c2c1C(O)C(F)(F)CC2)C(F)F` (stereo not drawn) [Example 25, 1-(3-chloro-4-fluorophenyl)-3-((difluoromethyl)sulfonyl)-5,5-difluoro-4,5,6,7-tetrahydro-1H-indol-4-ol] was tested. Which IC50 did it give?
The IC50 was 63 nM.

With `O=S(=O)(c1cn(-c2ccc(F)c(C(F)F)c2)c2c1[C@@H](O)C(F)(F)CC2)C(F)F` [Example 26, (R)-1-(3-(difluoromethyl)-4-fluorophenyl)-3-((difluoromethyl)sulfonyl)-5,5-difluoro-4,5,6,7-tetrahydro-1H-indol-4-ol] as the compound, how does the IC50 read?
The IC50 was 628 nM.

Which IC50 does the source give for `N#Cc1cc(-n2cc(S(=O)(=O)C(F)F)c3c2CCC(F)(F)[C@H]3O)ccc1Cl` [Example 28, (S)-2-chloro-5-(3-((difluoromethyl)sulfonyl)-5,5-difluoro-4-hydroxyl-4,5,6,7-tetrahydro-1H-indol-1-yl)benzonitrile] here?
Its IC50 is 118 nM.

`CS(=O)(=O)c1cn(-c2ccc(C#N)c(C(F)F)c2)c2c1[C@H](O)C(F)(F)CC2` [Example 29, (S)-4-(5,5-difluoro-4-hydroxyl-3-(methylsulfonyl)-4,5,6,7-tetrahydro-1H-indol-1-yl)-2-(difluoromethyl)benzonitrile] was tested. Which IC50 did it give?
The IC50 was 174 nM.

`O=S(=O)(CF)c1cn(-c2ccc(F)c(C(F)(F)F)c2)c2c1[C@H](O)C(F)(F)CC2` [Example 30, (S)-5,5-difluoro-1-(4-fluoro-3-(trifluoromethyl)phenyl)-3-((fluoromethyl)sulfonyl)-4,5,6,7-tetrahydro-1H-indol-4-ol] was tested. Which IC50 did it give?
The IC50 was 45 nM.

For `N#Cc1ccc(-n2cc(S(=O)(=O)C(F)(F)F)c3c2CCC(F)(F)[C@H]3O)cc1C(F)(F)F` [Example 31, (S)-4-(5,5-difluoro-4-hydroxyl-3-((trifluoromethyl)sulfonyl)-4,5,6,7-tetrahydro-1H-indol-1-yl)-2-(trifluoromethyl)benzonitrile], which IC50 is on record?
The IC50 was 21 nM.

Same assay, conditions: Homo sapiens, 786-0; 786-O cells, 24 h, VEGFA in culture supernatant by ELISA; class symbols

Which IC50 does the source give for `N#Cc1cc(-n2cc(C(F)(F)F)c3c2CCC(F)(F)C3O)cc(F)c1F` (stereo not drawn) [Example 1, 5-(5,5-difluoro-4-hydroxyl-3-(trifluoromethyl)-4,5,6,7-tetrahydro-1H-indol-1-yl)-2,3-difluorobenzonitrile] here?
Its IC50 is ≤ 500 nM.

Which IC50 does the source give for `N#Cc1cc(-n2cc(S(=O)(=O)C(F)(F)F)c3c2CCC(F)(F)[C@H]3O)ccc1F` [Example 10, (S)-5-(5,5-difluoro-4-hydroxyl-3-((trifluoromethyl)sulfonyl)-4,5,6,7-tetrahydro-1H-indol-1-yl)-2-fluorobenzonitrile] here?
Its IC50 is ≤ 500 nM.

With `N#CCS(=O)(=O)c1cn(-c2ccc(F)c(C(F)(F)F)c2)c2c1[C@H](O)C(F)(F)CC2` [Example 13, (S)-2-((5,5-difluoro-1-(4-fluoro-3-(trifluoromethyl)phenyl)-4-hydroxyl-4,5,6,7-tetrahydro-1H-indol-3-yl)sulfonyl)acetonitrile] as the compound, how does the IC50 read?
Its IC50 is 500 to 1500 nM.

`N#Cc1cc(-n2cc(C(F)(F)C(N)=O)c3c2CCC(F)(F)C3O)ccc1F` (stereo not drawn) [Example 15, 2-(1-(3-cyano-4-fluorophenyl)-5,5-difluoro-4-hydroxyl-4,5,6,7-tetrahydro-1H-indol-3-yl)-2,2-difluoroacetamide] was tested. Which IC50 did it give?
The IC50 was 500 to 1500 nM.

Which IC50 does the source give for `N#Cc1cc(-n2cc(C(F)(F)C#N)c3c2CCC(F)(F)C3O)ccc1F` (stereo not drawn) [Example 17, 5-(3-(cyanodifluoromethyl)-5,5-difluoro-4-hydroxyl-4,5,6,7-tetrahydro-1H-indol-1-yl)-2-fluorobenzonitrile] here?
The IC50 was ≤ 500 nM.

Which IC50 does the source give for `N#CCS(=O)(=O)c1cn(-c2ccc(F)c(C(F)F)c2)c2c1[C@H](O)C(F)(F)CC2` [Example 19, (S)-2-((1-(3-(difluoromethyl)-4-fluorophenyl)-5,5-difluoro-4-hydroxyl-4,5,6,7-tetrahydro-1H-indol-3-yl)sulfonyl)acetonitrile] here?
The IC50 was 500 to 1500 nM.

For `CS(=O)(=O)c1cn(-c2ccc(Cl)c(C#N)c2)c2c1[C@H](O)C(F)(F)CC2` [Example 27, (S)-2-chloro-5-(5,5-difluoro-4-hydroxyl-3-(methylsulfonyl)-4,5,6,7-tetrahydro-1H-indol-1-yl)benzonitrile], which IC50 is on record?
Its IC50 is ≤ 500 nM.
